Read-outs that look alike come from different tables or passages of the source.
Experiments:
[1] = tested on: IL-1β secreted by synoviocyte; assay: Content of IL-1β in culture supernatant of synoviocyte of RA model rats given test compound; format: in vivo; conditions: rat RA model, dose 30 mg/kg.2d; normal control 0.16 ± 0.034, NaCl 0.49 ± 0.136
How it was run: (§1)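 Read-out: TNF-α, PGE2 and IL-1β levels in supernatant from cultured synoviocytes. Cells came from RA model rats treated with compound at 30 mg/kg.2d, and from NaCl-treated and normal control rats.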

[2] = tested on: PGE2 secreted by synoviocyte; assay: Content of PGE2 in culture supernatant of synoviocyte of RA model rats given test compound; format: in vivo; conditions: rat RA model, dose 30 mg/kg.2d; normal control 8.34 ± 1.29, NaCl 32.44 ± 10.32
How it was run: as §1

cancer stem cells = assay: Survival rate of cancer stem cells after test compound is added (flow cytometry, Annexin V-FITC/PI, clinical specimen); format: cell-based, patient; conditions: Homo sapiens, 18 h
How it was run: (§2)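 Survival was determined in clinical specimens after an 18 h compound treatment, using Annexin V-FITC/PI apoptosis staining and flow cytometry.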

cancer cells = assay: Survival rate of cancer cells after test compound is added (flow cytometry, Annexin V-FITC/PI, clinical specimen); format: cell-based, patient; conditions: Homo sapiens, 18 h, read-out: Survival rate (%) All cells (Stem cells and ordinary cells)
How it was run: as §2

normal cells = assay: Survival rate of normal cells after test compound is added (flow cytometry, Annexin V-FITC/PI); format: cell-based; conditions: 18 h
How it was run: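 Patient specimens (e.g. AML, CD34+/CD38+ stem-cell marker) separated on Ficoll; mononuclear cells at 1×10^6/mL in serum-free IMDM treated 18 h with compound. Cells stained for stem-cell markers, then Annexin V-FITC/PI, and apoptosis measured by flow cytometry within one hour.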

[3] = Head and neck squamous cell carcinomas
[4] = read-out: Survival rate (%) All cells (Stem cells and ordinary cells)
[5] = read-out: Survival rate (%) Stem cells

[2H][C@@]1(CN(C)C)C(=O)O[C@@H]2[C@@H]3[C@@H](CCC34CC4)C3(CC[C@H]21)CC3 [Compound 46]
Content of IL-1β in culture supernatant of synoviocyte (x ± s) [1]: 0.36 ± 0.067 ng/mL | Content of PGE2 in culture supernatant of synoviocyte (x ± s) [2]: 24.74 ± 2.64 ng/mL | viability at 10 µM (cancer stem cells; AML): 82% | viability at 20 µM (cancer stem cells; AML): 74% | viability at 10 µM (cancer stem cells; Brain glioma): 88% | viability at 20 µM (cancer stem cells; Brain glioma): 81% | viability at 10 µM (cancer stem cells; Brain tumor): 88% | viability at 20 µM (cancer stem cells; Brain tumor): 81% | viability at 10 µM (cancer stem cells; Breast cancer): 82% | viability at 20 µM (cancer stem cells; Breast cancer): 76% | viability at 10 µM (cancer stem cells; CLL): 82% | viability at 20 µM (cancer stem cells; CLL): 76% | viability at 10 µM (cancer stem cells; CML): 85% | viability at 20 µM (cancer stem cells; CML): 79% | viability at 10 µM (cancer stem cells; Children hepatoblastoma): 84% | viability at 20 µM (cancer stem cells; Children hepatoblastoma): 78% | viability at 10 µM (cancer stem cells; Colon adenocarcinoma): 84% | viability at 20 µM (cancer stem cells; Colon adenocarcinoma): 74% | viability at 10 µM (cancer stem cells; Colorectal cancer): 86% | viability at 20 µM (cancer stem cells; Colorectal cancer): 78% | viability at 10 µM (cancer stem cells; Gastric cancer): 87% | viability at 20 µM (cancer stem cells; Gastric cancer): 76% | viability at 10 µM (cancer stem cells; Gastrointestinal tumor): 82% | viability at 20 µM (cancer stem cells; Gastrointestinal tumor): 76% | viability at 10 µM (cancer stem cells; Glioma): 87% | viability at 20 µM (cancer stem cells; Glioma): 75% | viability at 10 µM (cancer stem cells; [3]): 84% | viability at 20 µM (cancer stem cells; [3]): 78% | viability at 10 µM (cancer stem cells; Laryngeal cancer): 81% | viability at 20 µM (cancer stem cells; Laryngeal cancer): 75% | viability at 10 µM (cancer stem cells; Liver cancer): 81% | viability at 20 µM (cancer stem cells; Liver cancer): 75% | viability at 10 µM (cancer stem cells; Lung adenocarcinoma): 85% | viability at 20 µM (cancer stem cells; Lung adenocarcinoma): 79% | viability at 10 µM (cancer stem cells; Lung cancer): 82% | viability at 20 µM (cancer stem cells; Lung cancer): 76% | viability at 10 µM (cancer stem cells; Malignant melanoma): 85% | viability at 20 µM (cancer stem cells; Malignant melanoma): 77% | viability at 10 µM (cancer stem cells; Nasopharynx cancer): 79% | viability at 20 µM (cancer stem cells; Nasopharynx cancer): 72% | viability at 10 µM (cancer stem cells; Ovarian cancer): 79% | viability at 20 µM (cancer stem cells; Ovarian cancer): 72% | viability at 10 µM (cancer stem cells; Pancreatic cancer): 85% | viability at 20 µM (cancer stem cells; Pancreatic cancer): 79% | viability at 10 µM (cancer stem cells; Prostate cancer): 87% | viability at 20 µM (cancer stem cells; Prostate cancer): 76% | viability at 10 µM (cancer stem cells; Retinoblastoma): 82% | viability at 20 µM (cancer stem cells; Retinoblastoma): 73% | viability at 10 µM (cancer stem cells; Skin cancer): 85% | viability at 20 µM (cancer stem cells; Skin cancer): 77% | viability at 10 µM (cancer cells; AML): 88% | viability at 20 µM (cancer cells; AML): 85% | viability at 10 µM (cancer cells; Brain glioma): 91% | viability at 20 µM (cancer cells; Brain glioma): 89% | viability at 10 µM (cancer cells; Brain tumor): 91% | viability at 20 µM (cancer cells; Brain tumor): 89% | viability at 10 µM (cancer cells; Breast cancer): 89% | viability at 20 µM (cancer cells; Breast cancer): 86% | viability at 10 µM (cancer cells; CLL): 88% | viability at 20 µM (cancer cells; CLL): 89% | viability at 10 µM (cancer cells; CML): 93% | viability at 20 µM (cancer cells; CML): 86% | viability at 10 µM (cancer cells; Children hepatoblastoma): 91% | viability at 20 µM (cancer cells; Children hepatoblastoma): 88% | viability at 10 µM (cancer cells; Colon adenocarcinoma): 89% | viability at 20 µM (cancer cells; Colon adenocarcinoma): 86% | viability at 10 µM (cancer cells; Colorectal cancer): 93% | viability at 20 µM (cancer cells; Colorectal cancer): 92% | viability at 10 µM (cancer cells; Gastric cancer): 94% | viability at 20 µM (cancer cells; Gastric cancer): 87% | viability at 10 µM (cancer cells; Gastrointestinal tumor): 89% | viability at 20 µM (cancer cells; Gastrointestinal tumor): 86% | viability at 10 µM (cancer cells; Glioma): 91% | viability at 20 µM (cancer cells; Glioma): 84% | viability at 10 µM (cancer cells; [3]): 91% | viability at 20 µM (cancer cells; [3]): 88% | viability at 10 µM (cancer cells; Laryngeal cancer): 87% | viability at 20 µM (cancer cells; Laryngeal cancer): 83% | viability at 10 µM (cancer cells; Liver cancer): 87% | viability at 20 µM (cancer cells; Liver cancer): 83% | viability at 10 µM (cancer cells; Lung adenocarcinoma): 93% | viability at 20 µM (cancer cells; Lung adenocarcinoma): 86% | viability at 10 µM (cancer cells; Lung cancer): 88% | viability at 20 µM (cancer cells; Lung cancer): 89% | viability at 10 µM (cancer cells; Malignant melanoma): 92% | viability at 20 µM (cancer cells; Malignant melanoma): 89% | viability at 10 µM (cancer cells; Nasopharynx cancer): 88% | viability at 20 µM (cancer cells; Nasopharynx cancer): 81% | viability at 10 µM (cancer cells; Ovarian cancer): 88% | viability at 20 µM (cancer cells; Ovarian cancer): 81% | viability at 10 µM (cancer cells; Pancreatic cancer): 88% | viability at 20 µM (cancer cells; Pancreatic cancer): 85% | viability at 10 µM (cancer cells; Prostate cancer): 94% | viability at 20 µM (cancer cells; Prostate cancer): 87% | viability at 10 µM (cancer cells; Retinoblastoma): 91% | viability at 20 µM (cancer cells; Retinoblastoma): 87% | viability at 10 µM (cancer cells; Skin cancer): 92% | viability at 20 µM (cancer cells; Skin cancer): 89% | viability at 10 µM (normal cells; [4]): 95% | viability at 10 µM (normal cells; [5]): 94% | viability at 20 µM (normal cells; [4]): 94% | viability at 20 µM (normal cells; [5]): 92%

— patent publication US10463644B2, “Uses of sesquiterpene lactone compounds and their derivatives in drugs preparation” (ACCENDATECH, priority 2013, dated 2019)
